According to patent US20020115721A1, “Esters of alkycarboxy amino acids as prodrugs of modulators of the kainate receptor” (Annovis, Inc., priority 2000, published 2002):

Tests used:
[1] = tested on: Sprague-Dawley rats; test: Rat allodynia/hyperalgesia pain model after capsaicin; assay type: in vivo
Procedure: This test is to determine the extent of protection by a test compound to neuropathic pain sensations. With the rat standing on an elevated perforated floor, mechano-allodynia is measured by applying from beneath a graded series of von Frey hairs to the mid-plantar region of the effected paws. The hair that evokes at least one withdrawal response is designated the threshold level when compared to the sham treated nerve. Alternatively, the paw can be illuminated with a noxious radiant heat and the time to paw withdrawal is measured.
The model is described by Bennett, Neuro. Report 5, 1438-1440 (1994), and references cited therein. He measures changes in withdrawal latency after chronic constriction injury; a rat is prepared by bilaterally exposing the sciatic nerves on both thighs. On one side, loosely fitting constrictive ligatures are tied around the nerve; the other side is sham manipulated but not ligated. The model can also be used to measure increases in sensitivity and decreases in latency after injection of an irritating or pain inducing substance such as capsaicin or carrageenan.
A total of 40 adult male Sprague-Dawley rats, 250-300 g, were used. Baseline measures of withdrawal responses evoked by heat and mechanical stimuli were determined for each hind paw and obtained for at least 4 consecutive days until withdrawal and latency responses were stable. Four groups of 10 rats each were sorted to establish equivalent baseline mean responses to heat and mechanical stimuli. Each group was randomly assigned to 1 of 4 treatment conditions: vehicle, 10, 50, or 100 mg/kg compound i.p. On test day, withdrawal responses to heat and mechanical stimuli were measured before intraperitoneal injection of the treatment condition. […] Capsaicin (10 μl of 0.1%, intraplantar) was administered 30 minutes after i.p. injection. Withdrawal responses to heat and mechanical stimuli were again measured 5 and 30 minutes post capsaicin. The contralateral paw served as an internal control. The experimenter was blind to the treatment condition.
The prodrugs were tested in the allodynia model after inducing pain with capsaicin.
A total of 24 adult male Sprague-Dawley rats, 250-300 g., were used and treated according to protocol described above using (2S,4R)-4-methyl glumatic acid methyl ester.
A total of 33 adult male Sprague-Dawley rats, 250-300 g., were treated according to protocol described above using (2S,4R)-4-methyl glumatic acid ethyl ester. The concentrations of the compound were […].

[2] = tested on: Sprague-Dawley rats; test: as above; assay type: in vivo; settings: 1 hour before capsaicin
[3] = Prodrug hydrolysis to the acid form in plasma; assay type: in vitro ADME
From the text: The ester bond in any of the disclosed prodrug compositions can be readily cleaved in vivo. Therefore, prodrug compositions of Formula I can be hydrolyzed to the corresponding acids form in plasma.

[4] = biological target: glycine site of the NMDA receptor (Homo sapiens, UniProt Q05586); settings: cited from earlier work
[5] = cited from earlier work
[6] = tested on: AMPA receptor as compared to the kainate receptor; settings: selectivity ratio; cited from earlier work

## COC(=O)[C@H](N)C[C@H](C)C(=O)OC.Cl
other
  melting point: 138 to 139 °C

## CCOC(=O)[C@H](N)C[C@H](C)C(=O)OCC.Cl
other
  melting point: 158 to 160 °C

## C[C@H](C[C@H](N)C(=O)O)C(=O)O [Compound 1, (2S,4R)-4-Methyl glutamic acid]
[1]; 10, 50, 100 mg/kg i.p., capsaicin
  blocking hyperalgesia to heat: effective
[1]; 10, 50, and 100 mg/kg i.p., capsaicin intraplantar 30 minutes after injection
  blocking mechanical hyperalgesia: effective
[1]; 5 minutes post capsaicin, all doses (10, 50, 100 mg/kg i.p.)
  mechanical hyperalgesia versus vehicle (p<0.05): significantly different from vehicle
[1]; 30 minute time point
  hyperalgesia to heat versus vehicle: not significantly different from vehicle
[1]; 30 minutes post capsaicin, 100 mg/kg i.p. only
  mechanical hyperalgesia versus vehicle (p<0.05): remained significantly different from vehicle
[1]; all three doses (10, 50, 100 mg/kg i.p.), early time point
  hyperalgesia to heat versus vehicle (p<0.05): significantly different from vehicle

## COC(=O)[C@H](C)C[C@H](N)C(=O)OC.Cl [Compound 2, (2S,4R)-4-Methyl Glutamic Acid Dimethyl Ester Hydrochloride]
[1]; 10 mg/kg i.p., capsaicin
  hyperalgesia to mechanical stimuli (p<0.05): reduced
  hyperalgesia to radiant heat (p<0.05): reduced
other
  melting point: 138 to 139 °C
[2]; 0.1 mg/kg i.p.
  prevention of development of hyperalgesia: no effect
[2]; 1 mg/kg i.p.
  hyperalgesia prevention: about 40%
[2]; 10 and 50 mg/kg i.p.
  prevention of development of hyperalgesia: totally prevented
[3]
  hydrolysis to (2S,4R)-4-methyl glutamic acid (1): readily hydrolyzed

## CCOC(=O)[C@H](C)C[C@H](N)C(=O)OCC.Cl [Compound 3, (2S,4R)-4-Methyl Glutamic Acid Diethyl Ester Hydrochloride]
[1]; 0.1 to 50 mg/kg i.p., capsaicin
  blocking hyperalgesia to heat: not effective
[1]; 10 and 50 mg/kg i.p., capsaicin
  blocking mechanical hyperalgesia (p<0.05): effective
other
  melting point: 158 to 160 °C

## NS(=O)(=O)c1cccc2c3c(cc([N+](=O)[O-])c12)=NC(=O)C(=O)N=3 [NBQX, 6-nitro-7-sulfamoylbenzoquinoxaline-2,3-dione]
[4]
  binding to glycine site of NMDA receptor: non-specifically binds
[5]
  solubility in water: very limited
[6]
  affinity for AMPA receptor as compared to kainate receptor: thirty
